For eight compounds, IC50 results are on record in patent EP4813991A1 (iLeadBMS Co., Ltd., priority 2023, dated 2025).

The target of one assay is CDK13 (Homo sapiens, UniProt Q14004). Kind of assay: CDK13 kinase inhibitory activity assay (33P-ATP filter binding). Format: biochemical. How it is done:
(§1) Before initiating the CDK12 and CDK13 kinase reactions, each Example compound was dissolved and diluted in DMSO as a solvent across 9 concentration ranges at room temperature. The diluted solutions were then incubated with a mixture of kinase and substrate (and cofactors, if required) for 20 minutes. Next, radioisotope-labeled ATP (^33P-gamma-ATP) was added to proceed with the kinase reaction at room temperature for 120 minutes. After the reaction was completed, the reaction mixture was transferred to a filter paper that binds the radioisotope-labeled catalytic product (^33P-substrate). Unreacted ^33P-ATP was removed by washing with 0.75 % phosphoric acid, and then the radioactive phosphorylated substrate remaining on the filter paper was measured. Kinase activity data were expressed as a percentage of the kinase activity remaining in the test sample compared to a DMSO control group. The half-maximal inhibitory concentration (IC50) for each kinase was calculated using Prism (Graphpad) software.

In assay [1] the test system is MDA-MB-231 breast cancer cells. Kind of assay: Proliferation inhibitory activity assay against MDA-MB-231 breast cancer cells. The assay is classed as cell-based. The following applies: Homo sapiens, 72 hours, CellTiter Glo, relative IC50. As for the experimental part: Experiments were performed using the MDA-MB-231 breast cancer cell line to measure the cell proliferation inhibitory ability of each Example compound. MDA-MB-231 cells were dispensed into a 96-well plate at 100 µL of cell suspension per well using L-15 (Invitrogen) medium containing 10 % FBS, followed by incubation in a cell incubator at 37 °C and 0 % CO2. The next day, each Example compound dissolved and diluted in DMSO across 9 concentration ranges and a DMSO control group were treated on the cells for 72 hours. After the compound treatment was completed, 100 µL of CellTiter Glo (Promega) reagent was added to each well of the 96-well plate, followed by shaking for 10 minutes and standing at room temperature for 10 minutes. Luminescence signals were measured after inserting the 96-well plate into an Envision plate reader (PerkinElmer). Relative IC50 values were calculated by fitting a dose-response curve using XLfit (IDBS Ltd) software.
The breast cancer cell proliferation inhibitory activities of the Example compounds measured by the above method were evaluated according to the following criteria, and the results are presented in Table 13.
(In general: In ATP-based viability assays light output follows the ATP content of the culture.)

Assay [2] deals with T1, CDK12 (Homo sapiens, UniProt Q9NYV4). Kind of assay: CDK12 kinase inhibitory activity assay (33P-ATP filter binding). The assay is classed as biochemical. The following applies: kinase reaction 120 minutes, 33P-gamma-ATP; read-out: CDK12 IC50. As for the experimental part: as §1
T1 sequence (Q9NYV4 whole entry, species assumed): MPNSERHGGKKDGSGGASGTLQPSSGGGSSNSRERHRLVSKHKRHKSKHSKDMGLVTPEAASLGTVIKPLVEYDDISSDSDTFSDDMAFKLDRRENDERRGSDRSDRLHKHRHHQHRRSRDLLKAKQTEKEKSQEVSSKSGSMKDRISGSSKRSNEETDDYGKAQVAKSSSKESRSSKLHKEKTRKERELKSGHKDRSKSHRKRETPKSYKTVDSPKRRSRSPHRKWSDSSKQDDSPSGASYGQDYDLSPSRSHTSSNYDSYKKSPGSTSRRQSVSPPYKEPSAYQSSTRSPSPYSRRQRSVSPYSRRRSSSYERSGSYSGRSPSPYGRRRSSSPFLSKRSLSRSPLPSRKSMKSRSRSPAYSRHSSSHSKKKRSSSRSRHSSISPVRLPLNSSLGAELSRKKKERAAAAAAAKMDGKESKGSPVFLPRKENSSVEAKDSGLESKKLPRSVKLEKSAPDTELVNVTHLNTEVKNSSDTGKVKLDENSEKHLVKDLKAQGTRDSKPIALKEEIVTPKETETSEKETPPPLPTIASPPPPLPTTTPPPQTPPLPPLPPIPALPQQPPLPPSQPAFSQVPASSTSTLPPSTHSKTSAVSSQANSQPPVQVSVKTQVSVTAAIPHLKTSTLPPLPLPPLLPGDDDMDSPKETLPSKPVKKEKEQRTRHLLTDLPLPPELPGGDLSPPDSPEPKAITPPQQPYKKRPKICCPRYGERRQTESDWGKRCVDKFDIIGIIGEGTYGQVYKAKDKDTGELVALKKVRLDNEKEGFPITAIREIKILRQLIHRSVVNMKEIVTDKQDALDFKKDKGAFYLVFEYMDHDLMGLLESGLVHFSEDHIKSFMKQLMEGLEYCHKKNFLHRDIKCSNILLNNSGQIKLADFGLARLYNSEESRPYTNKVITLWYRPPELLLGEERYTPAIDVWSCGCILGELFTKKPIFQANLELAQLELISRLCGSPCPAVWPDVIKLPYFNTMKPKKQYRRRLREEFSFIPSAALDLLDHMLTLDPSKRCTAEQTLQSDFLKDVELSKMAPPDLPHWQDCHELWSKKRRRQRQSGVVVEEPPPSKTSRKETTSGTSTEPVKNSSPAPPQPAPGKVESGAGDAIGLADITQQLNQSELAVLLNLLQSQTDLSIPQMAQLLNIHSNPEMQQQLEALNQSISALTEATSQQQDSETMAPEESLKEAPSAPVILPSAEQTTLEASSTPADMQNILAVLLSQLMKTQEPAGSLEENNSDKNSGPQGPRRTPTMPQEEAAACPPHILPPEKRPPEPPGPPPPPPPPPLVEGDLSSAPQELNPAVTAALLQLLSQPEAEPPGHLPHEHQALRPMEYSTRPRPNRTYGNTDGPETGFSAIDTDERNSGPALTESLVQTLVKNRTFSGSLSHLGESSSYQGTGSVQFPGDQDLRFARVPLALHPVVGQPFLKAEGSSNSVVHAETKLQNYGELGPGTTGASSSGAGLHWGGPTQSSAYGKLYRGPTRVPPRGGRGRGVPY
T1 sequence (O75909 whole entry partner, species assumed): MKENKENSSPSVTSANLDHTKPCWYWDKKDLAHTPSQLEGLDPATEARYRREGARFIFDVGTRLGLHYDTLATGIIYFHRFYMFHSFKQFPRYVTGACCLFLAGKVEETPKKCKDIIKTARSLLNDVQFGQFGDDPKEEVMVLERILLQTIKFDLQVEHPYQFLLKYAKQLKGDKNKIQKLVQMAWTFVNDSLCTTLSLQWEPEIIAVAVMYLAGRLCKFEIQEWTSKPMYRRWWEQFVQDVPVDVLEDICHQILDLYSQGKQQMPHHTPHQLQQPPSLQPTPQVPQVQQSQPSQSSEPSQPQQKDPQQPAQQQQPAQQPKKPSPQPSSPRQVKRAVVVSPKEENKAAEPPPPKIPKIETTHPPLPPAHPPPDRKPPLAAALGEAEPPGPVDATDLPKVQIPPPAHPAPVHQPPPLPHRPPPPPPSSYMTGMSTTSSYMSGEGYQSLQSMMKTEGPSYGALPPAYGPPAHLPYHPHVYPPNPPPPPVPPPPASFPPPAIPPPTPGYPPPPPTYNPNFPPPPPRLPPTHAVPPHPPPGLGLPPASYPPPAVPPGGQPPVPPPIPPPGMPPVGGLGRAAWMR
Assay [3] has as its target T1, CDK12. Kind of assay: Cellular CDK12 inhibitory activity assay (Ser2 phosphorylation of RNA polymerase II subunit B1 CTD in MDA-MB-231 cells). The assay is classed as cell-based. The following applies: MDA-MB-231 cells, 6 hours treatment; read-out: pRpbl CTD S2 IC50. The arrangement: using MDA-MB-231 breast cancer cells; endogenous in cells; host or cells: MDA-MB-231. How it is done: MDA-MB-231 cells were dispensed into a 96-well plate at 100 µL of cell suspension per well using L-15 (Invitrogen) medium containing 10 % FBS, followed by overnight incubation in a cell incubator at 37 °C and 0 % CO2. The next day, each Example compound dissolved in DMSO across 9 concentration ranges and a DMSO control group were treated on the MDA-MB-231 cells at 37 °C and 0 % CO2 for 6 hours. After the compound treatment, the medium in the 96-well plate was removed, and 60 µL of a fixing solution (4.0 % paraformaldehyde in PBS) was added to each well, followed by standing for 20 minutes. After removing the fixing solution and washing with PBS, 60 µL of PBS containing 0.1 % Triton X-100 was dispensed into each well, followed by shaking at room temperature for 15 minutes. After washing with PBS, 100 µL of blocking buffer was added, followed by shaking at room temperature for 1 hour. After removing the blocking buffer, primary antibodies, which are RNA polymerase II subunit B1 phospho-Ser2 (1:500, Cell signaling technology) and RNA polymerase II subunit B1 carboxy-terminal domain (1:200, Cell signaling technology), were added at 60 µL per well and reacted overnight at 4 °C. After adding 150 µL of PBS containing 0.1 % Triton X-100 and washing at least twice by shaking at room temperature for 5 minutes, 60 µL of a secondary antibody was added, followed by shaking at room temperature for 1 hour while blocking light. After adding 150 µL of PBS containing 0.1 % Triton X-100 and washing at least twice by shaking at room temperature for 5 minutes, 150 µL of PBS was added again, followed by washing at least twice by shaking at room temperature for 5 minutes. The plate was scanned using a Li-COR Odyssey machine with the wells filled with PBS. IC50 values were calculated by fitting a dose-response curve using a 4-parameter model of Prism (Graphpad) software.

Setting [4] is: kinase reaction 120 minutes, 33P-gamma-ATP, read-out: CDK13 IC50.

Like-named read-outs stand apart in the source and are kept apart here.

CDK13, sequence (Q14004 whole entry, species assumed): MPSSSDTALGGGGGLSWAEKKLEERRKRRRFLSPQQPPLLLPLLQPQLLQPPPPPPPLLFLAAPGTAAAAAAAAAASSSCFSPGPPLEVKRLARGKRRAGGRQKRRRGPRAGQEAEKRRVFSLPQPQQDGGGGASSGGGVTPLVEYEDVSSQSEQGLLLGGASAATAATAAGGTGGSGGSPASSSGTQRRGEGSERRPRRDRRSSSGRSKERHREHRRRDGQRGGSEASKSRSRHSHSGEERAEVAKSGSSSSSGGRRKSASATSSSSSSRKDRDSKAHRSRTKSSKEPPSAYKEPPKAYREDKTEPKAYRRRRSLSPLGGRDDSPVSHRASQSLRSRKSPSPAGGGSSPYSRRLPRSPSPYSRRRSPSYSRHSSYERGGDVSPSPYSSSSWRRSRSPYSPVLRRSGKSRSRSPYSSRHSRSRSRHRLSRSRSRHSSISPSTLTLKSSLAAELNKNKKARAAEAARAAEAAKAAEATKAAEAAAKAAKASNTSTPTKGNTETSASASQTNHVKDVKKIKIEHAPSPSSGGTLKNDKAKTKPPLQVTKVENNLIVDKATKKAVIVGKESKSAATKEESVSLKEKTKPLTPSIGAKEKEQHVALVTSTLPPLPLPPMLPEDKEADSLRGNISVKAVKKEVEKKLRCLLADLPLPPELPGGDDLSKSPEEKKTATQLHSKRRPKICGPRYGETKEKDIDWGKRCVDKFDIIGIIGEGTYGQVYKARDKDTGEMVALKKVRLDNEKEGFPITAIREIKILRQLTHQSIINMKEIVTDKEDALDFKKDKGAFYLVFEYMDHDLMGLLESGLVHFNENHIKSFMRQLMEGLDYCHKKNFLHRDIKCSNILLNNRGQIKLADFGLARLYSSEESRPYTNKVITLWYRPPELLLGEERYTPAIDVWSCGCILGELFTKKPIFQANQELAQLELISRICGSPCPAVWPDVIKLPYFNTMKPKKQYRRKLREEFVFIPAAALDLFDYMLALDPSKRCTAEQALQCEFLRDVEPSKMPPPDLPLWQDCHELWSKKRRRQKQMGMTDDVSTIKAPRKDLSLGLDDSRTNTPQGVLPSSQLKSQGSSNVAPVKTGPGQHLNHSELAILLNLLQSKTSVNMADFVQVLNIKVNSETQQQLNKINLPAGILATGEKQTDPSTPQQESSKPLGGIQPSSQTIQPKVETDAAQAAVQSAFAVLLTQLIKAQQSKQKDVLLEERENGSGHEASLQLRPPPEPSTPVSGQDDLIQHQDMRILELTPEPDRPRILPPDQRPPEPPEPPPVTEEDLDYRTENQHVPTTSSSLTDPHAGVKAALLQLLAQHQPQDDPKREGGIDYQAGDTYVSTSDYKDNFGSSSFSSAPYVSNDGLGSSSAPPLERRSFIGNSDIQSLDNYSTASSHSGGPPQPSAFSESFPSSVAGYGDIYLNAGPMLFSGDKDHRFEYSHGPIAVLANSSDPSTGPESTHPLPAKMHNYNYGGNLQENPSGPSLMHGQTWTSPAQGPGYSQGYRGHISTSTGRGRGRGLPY
CDK13, sequence (O75909 whole entry partner, species assumed): as the sequence (O75909 whole entry partner, species assumed) above

The IC50 is the concentration that gives 50% inhibition. For the compound `FC(F)(F)c1cnc2c(NCc3nc4cc(Cl)c(Cl)cc4[nH]3)cc(N3CC4CCC3CO4)nn12` (centres unmarked) [Example 43, 6-(2-oxa-5-azabicyclo[2.2.2]octan-5-yl)-N-((5,6-dichloro-1H-benzo[d]imidazol-2-yl)methyl)-3-(trifluoromethyl)imidazo[1,2-b]pyridazin-8-amine], the IC50 at CDK13 (setting [4]) fell in the range of 100 to 500 nM; in assay [1] it was 50 to 500 nM; on CDK12 [2], 100 to 500 nM; at CDK12 [3] it was 300 to 3000 nM.
For `Fc1cc2nc(CNc3cc(N4CCOCC4)nn4c(C(F)(F)F)cnc34)[nH]c2cc1F` [Example 70, N-((5,6-difluoro-1H-benzo[d]imidazol-2-yl)methyl)-6-morpholino-3-(trifluoromethyl)imidazo[1,2-b]pyridazin-8-amine], the concentration for half-maximal inhibition (IC50) was less than 100 nM on CDK13 (setting [4]), not above 50 nM in assay [1], less than 100 nM on CDK12 [2] and less than 300 nM on CDK12 [3].
As to `CC(C)(O)C1CN(c2cc(NCc3nc4cc(Cl)c(Cl)cc4[nH]3)c3ncc(C(F)(F)F)n3n2)C1` [Example 48, 2-(1-(8-(((5,6-dichloro-1H-benzo[d]imidazol-2-yl)methyl)amino)-3-(trifluoromethyl)imidazo[1,2-b]pyridazin-6-yl)azetidin-3-yl)propan-2-ol], the IC50 was 100 to 500 nM on CDK13 (setting [4]), 50 to 500 nM in assay [1], more than 500 nM on CDK12 [2] and less than 300 nM on CDK12 [3].
As for `FC(F)(F)c1cnc2c(NCc3nc4cc(Cl)c(Cl)cc4[nH]3)cc(N3CC(NC4CC4)C3)nn12` [Example 58, 6-(3-(cyclopropylamino)azetidin-1-yl)-N-((5,6-dichloro-1H-benzo[d]imidazol-2-yl)methyl)-3-(trifluoromethyl)imidazo[1,2-b]pyridazin-8-amine], the half-inhibitory concentration (IC50) on CDK13 (setting [4]) is 100 to 500 nM; in assay [1], not above 50 nM; on CDK12 [2], more than 500 nM; on CDK12 [3], less than 300 nM.
In the case of `N#CC1(O)CN(c2cc(NCc3nc4cc(Cl)c(Cl)cc4[nH]3)c3ncc(C(F)(F)F)n3n2)C1` [Example 59, 1-(8-(((5,6-dichloro-1H-benzo[d]imidazol-2-yl)methyl)amino)-3-(trifluoromethyl)imidazo[1,2-b]pyridazin-6-yl)-3-hydroxyazetidine-3-carbonitrile], the IC50 on CDK13 is 100 to 500 nM; in assay [1] it was not above 50 nM; at CDK12 [2], 100 to 500 nM; at CDK12 [3], less than 300 nM.
In the case of `Fc1ccc2nc(CNc3cc(N4CCOCC4)nn4c(C(F)(F)F)cnc34)[nH]c2c1F` [Example 6, N-((6,7-difluoro-1H-benzo[d]imidazol-2-yl)methyl)-6-morpholino-3-(trifluoromethyl)imidazo[1,2-b]pyridazin-8-amine], the IC50 at CDK13 (setting [4]) was less than 100 nM; in assay [1], not above 50 nM; at CDK12 [2], less than 100 nM; at CDK12 [3], less than 300 nM.
For the compound `O=C(CO)N1CCN(c2cc(NCc3nc4cc(Cl)c(Cl)cc4[nH]3)c3ncc(C(F)(F)F)n3n2)CC1` [Example 102, 1-(4-(8-(((5,6-dichloro-1H-benzo[d]imidazol-2-yl)methyl)amino)-3-(trifluoromethyl)imidazo[1,2-b]pyridazin-6-yl)piperazin-1-yl)-2-hydroxyethan-1-one], the IC50 was less than 100 nM on CDK13 (setting [4]), not above 50 nM in assay [1], less than 100 nM on CDK12 [2] and less than 300 nM on CDK12 [3].
`CC(C)c1cnc2c(NCc3nc4ccc(F)c(F)c4[nH]3)cc(N3CCOCC3)nn12` [Example 3, N-((6,7-difluoro-1H-benzo[d]imidazol-2-yl)methyl)-3-isopropyl-6-morpholinoimidazo[1,2-b]pyridazin-8-amine]: the IC50 was 100 to 500 nM at CDK13, 50 to 500 nM in assay [1], more than 500 nM at CDK12 [2] and 300 to 3000 nM on CDK12 [3].
